Experimental data as given in ChEMBL document CHEMBL1201862, “PubChem BioAssay data set” (2004).
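Dose response: 5 concentrations. Exposure: 48 h. Format: 96-well plates. Endpoint: linear interpolation; highest concentration if not reached. Abbreviation: GI50, concentration required for 50% inhibition of growth.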 The source made the active and inactive calls. Rule as the data show it: active = GI50 up to about 1.1 µM and inactive = higher.

What was measured:
Assay in all cases: NCI anticancer screen, dose series, 48 h
MCF7 = tested on: MCF7
HL-60 = tested on: HL-60
HCT-15 = tested on: HCT-15
MDA-N = tested on: MDA-N
HCC 2998 = tested on: HCC 2998
U-251 = tested on: U-251
NCI-H226 = tested on: NCI-H226
SNB-75 = tested on: SNB-75
NCI-H23 = tested on: NCI-H23
TK-10 = tested on: TK-10
A549 = tested on: A549
OVCAR-8 = tested on: OVCAR-8
UACC-257 = tested on: UACC-257
COLO 205 = tested on: COLO 205
786-0 = tested on: 786-0
ACHN = tested on: ACHN
HOP-62 = tested on: HOP-62
SR = tested on: SR
T47D = tested on: T47D
OVCAR-5 = tested on: OVCAR-5

O=C(/C=C/c1cccs1)c1ccc([N+](=O)[O-])cc1
GI50 (MCF7): 61.7 µM (inactive) | GI50 (HL-60): 83.2 µM (inactive) | GI50 (HCT-15): > 100 µM | GI50 (MDA-N): > 100 µM (inactive) | GI50 (HCC 2998): > 100 µM (inactive) | GI50 (U-251): > 100 µM (inactive) | GI50 (NCI-H226): 78.9 µM (inactive) | GI50 (SNB-75): 77.8 µM (inactive) | GI50 (NCI-H23): > 100 µM (inactive) | GI50 (TK-10): > 100 µM (inactive) | GI50 (A549): > 100 µM (inactive) | GI50 (OVCAR-8): > 100 µM (inactive) | GI50 (UACC-257): > 100 µM (inactive) | GI50 (COLO 205): > 100 µM (inactive) | GI50 (786-0): > 100 µM (inactive) | GI50 (ACHN): > 100 µM (inactive) | GI50 (HOP-62): > 100 µM (inactive) | GI50 (SR): 65.8 µM (inactive) | GI50 (T47D): > 100 µM (inactive)

C1CCCN(NC2=NCCO2)CC1
GI50 (MCF7): > 100 µM (inactive) | GI50 (HL-60): > 100 µM (inactive) | GI50 (HCT-15): > 100 µM | GI50 (MDA-N): > 100 µM (inactive) | GI50 (OVCAR-5): > 100 µM (inactive) | GI50 (HCC 2998): > 100 µM (inactive) | GI50 (U-251): > 100 µM (inactive) | GI50 (NCI-H226): > 100 µM (inactive) | GI50 (SNB-75): > 100 µM (inactive) | GI50 (NCI-H23): > 100 µM (inactive) | GI50 (TK-10): > 100 µM (inactive) | GI50 (A549): > 100 µM (inactive) | GI50 (OVCAR-8): > 100 µM (inactive) | GI50 (UACC-257): > 100 µM (inactive) | GI50 (COLO 205): > 100 µM (inactive) | GI50 (786-0): > 100 µM (inactive) | GI50 (ACHN): > 100 µM (inactive) | GI50 (HOP-62): > 100 µM (inactive) | GI50 (SR): > 100 µM (inactive) | GI50 (T47D): > 100 µM (inactive)

COC1=CC(=O)c2c(c(-c3csc(C)n3)cn2C)C1=O
GI50 (MCF7): 21.7 µM (inactive) | GI50 (HL-60): 2.13 µM (inactive) | GI50 (HCT-15): 6.34 µM | GI50 (MDA-N): 14.8 µM (inactive) | GI50 (OVCAR-5): 49.5 µM (inactive) | GI50 (HCC 2998): 10.9 µM (inactive) | GI50 (U-251): 69.7 µM (inactive) | GI50 (NCI-H226): 33.6 µM (inactive) | GI50 (SNB-75): 4.31 µM (inactive) | GI50 (NCI-H23): 2.56 µM (inactive) | GI50 (TK-10): 29.9 µM (inactive) | GI50 (A549): 2.15 µM (inactive) | GI50 (OVCAR-8): 22.6 µM (inactive) | GI50 (UACC-257): 5.92 µM (inactive) | GI50 (COLO 205): 19.8 µM (inactive) | GI50 (786-0): 36 µM (inactive) | GI50 (ACHN): 25.8 µM (inactive) | GI50 (HOP-62): 30 µM (inactive) | GI50 (SR): 23.3 µM (inactive) | GI50 (T47D): 26.5 µM (inactive)

O=[PH]1c2ccccc2Nc2ccccc21
GI50 (MCF7): > 100 µM (inactive) | GI50 (HL-60): 75.7 µM (inactive) | GI50 (HCT-15): 37.1 µM | GI50 (MDA-N): > 100 µM (inactive) | GI50 (OVCAR-5): > 100 µM (inactive) | GI50 (HCC 2998): > 100 µM (inactive) | GI50 (U-251): > 100 µM (inactive) | GI50 (NCI-H226): > 100 µM (inactive) | GI50 (SNB-75): > 100 µM (inactive) | GI50 (NCI-H23): > 100 µM (inactive) | GI50 (TK-10): > 100 µM (inactive) | GI50 (A549): > 100 µM (inactive) | GI50 (OVCAR-8): > 100 µM (inactive) | GI50 (UACC-257): > 100 µM (inactive) | GI50 (COLO 205): > 100 µM (inactive) | GI50 (786-0): > 100 µM (inactive) | GI50 (ACHN): > 100 µM (inactive) | GI50 (HOP-62): > 100 µM (inactive) | GI50 (SR): > 100 µM (inactive) | GI50 (T47D): > 100 µM (inactive)

CCCCCCCCCCCCCC[S+](C)C
GI50 (MCF7): 1.67 µM (inactive) | GI50 (HL-60): 1.03 µM (active) | GI50 (HCT-15): 3.93 µM | GI50 (MDA-N): 2.08 µM (inactive) | GI50 (OVCAR-5): 2.88 µM (inactive) | GI50 (HCC 2998): 1.66 µM (inactive) | GI50 (U-251): 1.09 µM (active) | GI50 (NCI-H226): 1.99 µM (inactive) | GI50 (SNB-75): 1.58 µM (inactive) | GI50 (NCI-H23): 1.5 µM (inactive) | GI50 (TK-10): 1.71 µM (inactive) | GI50 (A549): 1.68 µM (inactive) | GI50 (OVCAR-8): 1.77 µM (inactive) | GI50 (UACC-257): 2.45 µM (inactive) | GI50 (COLO 205): 1.62 µM (inactive) | GI50 (786-0): 1.33 µM (inactive) | GI50 (ACHN): 3.32 µM (inactive) | GI50 (HOP-62): 1.67 µM (inactive) | GI50 (SR): 0.538 µM (active) | GI50 (T47D): 2.1 µM (inactive)

Cc1cc(NC(=O)NC(=O)c2ccccc2NC(=O)CN(C)C)ccc1Oc1ncc(Br)cn1
GI50 (MCF7): 0.809 µM (active) | GI50 (HL-60): 0.658 µM (active) | GI50 (HCT-15): 3.18 µM | GI50 (MDA-N): 0.221 µM (active) | GI50 (OVCAR-5): 15.1 µM (inactive) | GI50 (HCC 2998): 1.22 µM (inactive) | GI50 (U-251): 3.92 µM (inactive) | GI50 (NCI-H226): 6.76 µM (inactive) | GI50 (SNB-75): 1.89 µM (inactive) | GI50 (NCI-H23): 4.67 µM (inactive) | GI50 (TK-10): 21.6 µM (inactive) | GI50 (A549): 3.54 µM (inactive) | GI50 (OVCAR-8): 6.84 µM (inactive) | GI50 (UACC-257): 57.5 µM (inactive) | GI50 (COLO 205): 2.38 µM (inactive) | GI50 (786-0): 3.52 µM (inactive) | GI50 (ACHN): 18 µM (inactive) | GI50 (HOP-62): 2.76 µM (inactive) | GI50 (SR): 3.24 µM (inactive) | GI50 (T47D): > 100 µM (inactive)

C[C@@H]1O[C@@H](O[C@H]2CC[C@]3(C=O)[C@H]4CC[C@]5(C)[C@@H](c6ccc(=O)oc6)CC[C@]5(O)[C@@H]4CC[C@]3(O)C2)[C@H](O)[C@H](O)[C@H]1O[C@@H]1O[C@H](CO)[C@@H](O)[C@H](O)[C@H]1O [HELLEBRIN]
GI50 (MCF7): 0.0375 µM (active) | GI50 (HL-60): 0.00615 µM (active) | GI50 (HCT-15): 0.0375 µM | GI50 (MDA-N): 0.0223 µM (active) | GI50 (OVCAR-5): 0.00989 µM (active) | GI50 (HCC 2998): 0.0365 µM (active) | GI50 (U-251): 0.0223 µM (active) | GI50 (NCI-H226): 0.0231 µM (active) | GI50 (SNB-75): 0.0198 µM (active) | GI50 (NCI-H23): 0.00314 µM (active) | GI50 (TK-10): 0.00347 µM (active) | GI50 (OVCAR-8): 0.0126 µM (active) | GI50 (UACC-257): 0.0243 µM (active) | GI50 (COLO 205): 0.0271 µM (active) | GI50 (786-0): 0.00451 µM (active) | GI50 (ACHN): 0.00423 µM (active) | GI50 (HOP-62): 0.0375 µM (active) | GI50 (SR): 0.00601 µM (active) | GI50 (T47D): 0.0166 µM (active)

CCOC(=O)C(=CNc1ccc(S(N)(=O)=O)cc1)C(=O)OCC
GI50 (MCF7): > 100 µM (inactive) | GI50 (HL-60): > 100 µM (inactive) | GI50 (HCT-15): > 100 µM | GI50 (MDA-N): > 100 µM (inactive) | GI50 (OVCAR-5): > 100 µM (inactive) | GI50 (HCC 2998): > 100 µM (inactive) | GI50 (U-251): > 100 µM (inactive) | GI50 (NCI-H226): > 100 µM (inactive) | GI50 (SNB-75): > 100 µM (inactive) | GI50 (NCI-H23): > 100 µM (inactive) | GI50 (TK-10): > 100 µM (inactive) | GI50 (A549): > 100 µM (inactive) | GI50 (OVCAR-8): > 100 µM (inactive) | GI50 (UACC-257): > 100 µM (inactive) | GI50 (COLO 205): > 100 µM (inactive) | GI50 (786-0): > 100 µM (inactive) | GI50 (ACHN): > 100 µM (inactive) | GI50 (HOP-62): > 100 µM (inactive) | GI50 (SR): > 100 µM (inactive) | GI50 (T47D): > 100 µM (inactive)

COc1ccc(-c2cs/c(=N\c3ccccc3)n2CC(O)c2ccc([N+](=O)[O-])cc2)cc1 (stereo not drawn)
GI50 (MCF7): > 63.8 µM (inactive) | GI50 (HL-60): > 100 µM (inactive) | GI50 (HCT-15): > 100 µM | GI50 (MDA-N): > 100 µM (inactive) | GI50 (OVCAR-5): > 100 µM (inactive) | GI50 (HCC 2998): > 100 µM (inactive) | GI50 (U-251): > 100 µM (inactive) | GI50 (NCI-H226): > 100 µM (inactive) | GI50 (SNB-75): > 100 µM (inactive) | GI50 (NCI-H23): > 100 µM (inactive) | GI50 (TK-10): > 100 µM (inactive) | GI50 (A549): > 100 µM (inactive) | GI50 (OVCAR-8): > 100 µM (inactive) | GI50 (UACC-257): > 76.9 µM (inactive) | GI50 (COLO 205): > 100 µM (inactive) | GI50 (786-0): > 100 µM (inactive) | GI50 (ACHN): > 100 µM (inactive) | GI50 (HOP-62): > 100 µM (inactive) | GI50 (SR): 4.25 µM (inactive) | GI50 (T47D): 5.42 µM (inactive)

O=C1c2cccnc2C(=O)C2C3C=CC(C3)C12 (stereo not drawn)
GI50 (MCF7): 3.52 µM (inactive) | GI50 (HL-60): 1.74 µM (inactive) | GI50 (HCT-15): 12 µM | GI50 (MDA-N): 3.61 µM (inactive) | GI50 (OVCAR-5): 18.3 µM (inactive) | GI50 (HCC 2998): 15.8 µM (inactive) | GI50 (U-251): 4.23 µM (inactive) | GI50 (NCI-H226): 13 µM (inactive) | GI50 (SNB-75): 12.6 µM (inactive) | GI50 (NCI-H23): 12.1 µM (inactive) | GI50 (TK-10): 18 µM (inactive) | GI50 (A549): 12.4 µM (inactive) | GI50 (OVCAR-8): 5.48 µM (inactive) | GI50 (UACC-257): 13.5 µM (inactive) | GI50 (COLO 205): 13.3 µM (inactive) | GI50 (786-0): 11.1 µM (inactive) | GI50 (ACHN): 7.53 µM (inactive) | GI50 (HOP-62): 6.68 µM (inactive) | GI50 (SR): 2.11 µM (inactive) | GI50 (T47D): 3.01 µM (inactive)
